Experimental findings from US20220296584A1, “Membrane Active Molecules” (priority 2017, published 2022) are described below.

This experiment concerns Tadpoles. Description: Tadpole movement suppression (anesthetic efficacy). The experiment is classed as in vivo. The procedure:
Tadpoles were placed in a petri dish containing aquarium water. Four to eight tadpoles were placed in each petri dish. The aquarium water contained the specified test compound at the listed concentration. When the tadpoles stopped moving, a plastic rod was used to elicit motion once again by contact between the rod and tadpole. […] From this and the number of subjects, the percent of tadpoles in which movement was suppressed were calculated.
After 1 to 30 minutes, they were again contacted with a rod to ensure the anesthetic effect had worn off
In some examples, subanesthetic concentrations of ethanol were added into the aquarium water. Tadpoles in which movement was prevented with exposure to a test compound and ethanol but not with exposure to a test compound alone were classified as partial anesthetics.

Setting [1] is: Concentration (mM): 25 + 150 EtOH.
[2] abbreviates: Concentration (mM): 50 + 150 EtOH.
[3] abbreviates: Concentration (mM): 125 + 150 EtOH.
The mark [4] stands for this setting: Concentration (mM): 100 + 150 EtOH.
The mark [5] stands for this setting: Concentration (mM): 12.5 + 150 EtOH.
Setting [6] is: Concentration (mM): 250 + 150 EtOH.

Turning to `Cc1ccc(C(=O)NCC(=O)O)cc1` [4-Methylhippuric acid, (4-Methylbenzoyl)glycine], the “Movement suppressed (%)” value is 33% under setting [1], 0% (Concentration (mM): 50), 100% under setting [2] and 0% (Concentration (mM): 150 EtOH (no test compound concentration printed)).

Turning to `CC(C)[C@H](N)C(=O)O` [L-valine, Valine], the “Movement suppressed (%)” value by setting is: (Concentration (mM): 7.8) 0%; (Concentration (mM): 31) 0%; (Concentration (mM): 125) 0%; (Concentration (mM): 500) 40%; (Concentration (mM): 500 + 150 EtOH) 100%.

As for `N[C@@H](CO)C(=O)O` [L-Serine, Serine], the “Movement suppressed (%)” value is recorded as 0% (Concentration (mM): 114), 60% (Concentration (mM): 229 + 150 EtOH) and 100% (Concentration (mM): 300 + 150 EtOH).

In the case of `CCC(C)C(=O)C(=O)O` (stereo not drawn) [3-Methyl-2-oxovaleric acid, 3-Methyl-2-oxopentanoic acid], the “Movement suppressed (%)” value (Concentration (mM): 250) came out at 33%.

As for `C[C@@H](O)CC(=O)O` [R-3-hydroxybutyric acid, (R)-3-Hydroxybutanoic acid], the “Movement suppressed (%)” value runs as follows: (Concentration (mM): 100) 0%; (Concentration (mM): 200) 0%; (Concentration (mM): 250) 0%; (Concentration (mM): 300) 0%; (Concentration (mM): 350) 0%; (Concentration (mM): 400) 46%. For the same compound, where the note is “Concentration (mM): 500”, the “Movement suppressed (%)” value worked out at 100%.

As to `CCO` [Ethanol control, ethanol, reference compound], the “Movement suppressed (%)” value (Concentration (mM): 100) is given as 0%, the “Movement suppressed (%)” value (Concentration (mM): 150) came to 0%, the “Movement suppressed (%)” value (Concentration (mM): 200) was determined as 0% and the “Movement suppressed (%)” value (Concentration (mM): 250) is on record as 33%.

Regarding `CC(C)CCC(=O)O` [4-Methylvaleric acid], the “Movement suppressed (%)” value (Concentration (mM): 20) came to 0% and the “Movement suppressed (%)” value (Concentration (mM): 20 + 150 EtOH) is given as 100%.

Take `O=C(O)CCCC(=O)O` [Glutaric acid]: the “Movement suppressed (%)” value stood at 0% (Concentration (mM): 7.8), 0% (Concentration (mM): 31), 0% (Concentration (mM): 125) and 60% under setting [3].

For the compound `C[N+](C)(C)CCO` [Choline], the “Movement suppressed (%)” value runs as follows: (Concentration (mM): 46 + 150 EtOH) 0%; under setting [4], 40%; (Concentration (mM): 120 + 150 EtOH) 66%.

As for `N=C(N)NCCC[C@H](N)C(=O)O` [Arginine], the “Movement suppressed (%)” value (Concentration (mM): 46.5) was determined as 0% and the “Movement suppressed (%)” value (Concentration (mM): 192 + 150 EtOH) came to 83%.

In the case of `O=C(O)CCCCCCC(=O)O` [Suberic acid, Octanedioic acid], the “Movement suppressed (%)” value (Concentration (mM): 10) is reported as 50%.

Regarding `O=C(O)c1ccc2ccccc2n1` [Quinaldic acid, Quinoline-2-carboxylic acid], the “Movement suppressed (%)” value was 16% (Concentration (mM): 25) and 60% under setting [1].

As to `N[C@@H](Cc1c[nH]c2ccccc12)C(=O)O` [Tryptophan], the “Movement suppressed (%)” value is 0% (Concentration (mM): 12.5) and 80% under setting [5].

For the compound `Cc1cccc(C(=O)NCC(=O)O)c1` [3-Methylhippuric acid, (3-Methylbenzoyl)glycine], the “Movement suppressed (%)” value is listed as 0% (Concentration (mM): 3.125) and 100% (Concentration (mM): 3.125 + 150 EtOH).

Consider `CC(C)(C)CC(=O)O` [3,3-Dimethylbutyric acid, 3,3-Dimethylbutanoic acid], for which, for the setting “Concentration (mM): 25”, the “Movement suppressed (%)” value is 100%.

Consider `C[C@H](O)CC(=O)O` [S-3-hydroxybutyric acid, (S)-3-Hydroxybutanoic acid], for which the “Movement suppressed (%)” value (Concentration (mM): 100) was found to be 0%; the “Movement suppressed (%)” value (Concentration (mM): 200) is 0%; the “Movement suppressed (%)” value (Concentration (mM): 250) is given as 14%; the “Movement suppressed (%)” value (Concentration (mM): 300) amounted to 17%; the “Movement suppressed (%)” value (Concentration (mM): 350) is reported as 50%; the “Movement suppressed (%)” value (Concentration (mM): 400) is given as 92%. Moreover, where the note is “Concentration (mM): 500”, the “Movement suppressed (%)” value was 100%.

On to Fumaric acid, for which the “Movement suppressed (%)” value (Concentration (mM): 25) worked out at 40%.

Regarding Tartaric acid [L-Tartaric acid], the “Movement suppressed (%)” value (Concentration (mM): 50) turned out to be 0%.

Regarding `O=C(NC(O)C(=O)O)c1ccccc1` (stereo not drawn) [Alpha-Hydroxyhippuric acid, 2-Benzamido-2-hydroxyacetic acid], the “Movement suppressed (%)” value (Concentration (mM): 5) worked out at 33%, the “Movement suppressed (%)” value (Concentration (mM): 5 + 20 EtOH) is reported as 66% and the “Movement suppressed (%)” value (Concentration (mM): 10) was determined as 100%.

For the compound `CC(C)(C(=O)O)C(=O)O` [Dimethylmalonic acid], the “Movement suppressed (%)” value (Concentration (mM): 125) is recorded as 60% and the “Movement suppressed (%)” value (Concentration (mM): 250) is 60%.

For the compound `NCCCC[C@H](N)C(=O)O` [Lysine], the “Movement suppressed (%)” value under setting [6] amounted to 50%.

In the case of `CCC(O)C(=O)O` (stereo not drawn) [2-Hydroxybutyric acid, 2-hydroxybutyric acid], the “Movement suppressed (%)” value (Concentration (mM): 125) was 0% and the “Movement suppressed (%)” value under setting [3] turned out to be 86%.

With `CC(=O)CCCC(=O)O` [4-Acetylbutyric acid, 5-Oxohexanoic acid], the “Movement suppressed (%)” value runs as follows: (Concentration (mM): 25) 0%; under setting [1], 80%.

On to Succinic acid, for which the “Movement suppressed (%)” value (Concentration (mM): 62.5) is given as 0%.

On to `CC[C@H](C)[C@H](N)C(=O)O` [Isoleucine], for which the “Movement suppressed (%)” value runs as follows: (Concentration (mM): 25) 0%; under setting [4], 60%.

Turning to `CC(C)C(C(=O)O)C(=O)O` [Isopropyl malonic acid, 2-isopropylmalonic acid], the “Movement suppressed (%)” value (Concentration (mM): 1.6) is reported as 0%, the “Movement suppressed (%)” value (Concentration (mM): 6.25) is given as 0%, the “Movement suppressed (%)” value (Concentration (mM): 25) turned out to be 50% and the “Movement suppressed (%)” value under setting [1] is 40%.

For the compound `O=C(O)C(O)c1ccccc1` (stereo not drawn) [Mandelic acid, 2-Hydroxy-2-phenylacetic acid], the “Movement suppressed (%)” value (Concentration (mM): 250) is on record as 0%, the “Movement suppressed (%)” value (Concentration (mM): 300) is 100% and the “Movement suppressed (%)” value (Concentration (mM): 500) worked out at 100%.

Turning to `O=C(O)CCC(=O)C(=O)O` [2-Oxoglutaric acid], the “Movement suppressed (%)” value (Concentration (mM): 200 + 150 EtOH) was determined as 86% and the “Movement suppressed (%)” value under setting [6] turned out to be 100%.

Turning to `CC(=O)CCC(=O)O` [Levulinic acid, 4-oxopentanoic acid], the “Movement suppressed (%)” value under setting [4] is on record as 50%.

As to `O=C(O)CC(=O)C(=O)O` [Oxaloacetic acid, 2-Oxosuccinic acid], the “Movement suppressed (%)” value under setting [3] was 100%.

For `O=C(O)Cc1c[nH]c2ccccc12` [Indole-3-acetic acid, 2-(1H-indol-3-yl)acetic acid], the “Movement suppressed (%)” value (Concentration (mM): 12.5) was 0% and the “Movement suppressed (%)” value under setting [5] is 100%.

`O=C(O)CCCCC(=O)O` [Adipic acid, Hexanedioic acid]: the “Movement suppressed (%)” value reads like this: (Concentration (mM): 50) 0%; under setting [2], 83%.

Regarding `N[C@@H](CCC(=O)O)C(=O)O` [Glutamate, Glutamic acid], the “Movement suppressed (%)” value under setting [2] amounted to 100%.

Turning to Guanidine, the “Movement suppressed (%)” value (Concentration (mM): 62.5) turned out to be 0%.

`NC(=O)CC[C@H](N)C(=O)O` [Glutamine]: the “Movement suppressed (%)” value (Concentration (mM): 25) came out at 0%, the “Movement suppressed (%)” value (Concentration (mM): 50) turned out to be 100% and the “Movement suppressed (%)” value (Concentration (mM): 100) amounted to 100%.

As for `O=C(O)[C@@H]1CCCN1` [Proline], the “Movement suppressed (%)” value by setting is: (Concentration (mM): 103) 0%; (Concentration (mM): 411 + 150 EtOH) 100%.

Consider `O=C(O)c1cc(O)c2ccccc2n1` [Kynurenic acid, 4-hydroxyquinoline-2-carboxylic acid], for which the “Movement suppressed (%)” value (Concentration (mM): 12.5) is listed as 0% and the “Movement suppressed (%)” value under setting [5] is given as 100%.

For the compound `C[C@H](N)C(=O)O` [Alanine], the “Movement suppressed (%)” value was found to be 20% (Concentration (mM): 62.5 + 150 EtOH) and 80% under setting [3].

On to `O=C(O)C(=O)Cc1ccccc1` [Phenylpyruvic acid, 2-Oxo-3-phenylpropanoic acid], for which the “Movement suppressed (%)” value is, setting by setting: (Concentration (mM): 62.5) 100%; (Concentration (mM): 125) 100%.
